Measurements as given in patent US4290952A, “Aryl-1-mercaptoalkanoylproline and homoproline derivatives” (American Home Products Corporation, priority 1980, dated 1981).

Columns and labels:
[1] = target: T1, angiotensin converting enzyme (Oryctolagus cuniculus, UniProt P12822); assay: Inhibition of hippuryl-L-histidyl-L-leucine hydrolysis by angiotensin converting enzyme, in vitro; format: biochemical, rabbit
T1 construct: A crude angiotensin converting enzyme supernatant is obtained by blending 1 gm. of rabbit lung acetone powder; tissue Pel-Freez Biologicals; host or cells: rabbit lung (acetone powder; crude 40,000 xg supernatant)
T1 sequence (P12822 34-1310): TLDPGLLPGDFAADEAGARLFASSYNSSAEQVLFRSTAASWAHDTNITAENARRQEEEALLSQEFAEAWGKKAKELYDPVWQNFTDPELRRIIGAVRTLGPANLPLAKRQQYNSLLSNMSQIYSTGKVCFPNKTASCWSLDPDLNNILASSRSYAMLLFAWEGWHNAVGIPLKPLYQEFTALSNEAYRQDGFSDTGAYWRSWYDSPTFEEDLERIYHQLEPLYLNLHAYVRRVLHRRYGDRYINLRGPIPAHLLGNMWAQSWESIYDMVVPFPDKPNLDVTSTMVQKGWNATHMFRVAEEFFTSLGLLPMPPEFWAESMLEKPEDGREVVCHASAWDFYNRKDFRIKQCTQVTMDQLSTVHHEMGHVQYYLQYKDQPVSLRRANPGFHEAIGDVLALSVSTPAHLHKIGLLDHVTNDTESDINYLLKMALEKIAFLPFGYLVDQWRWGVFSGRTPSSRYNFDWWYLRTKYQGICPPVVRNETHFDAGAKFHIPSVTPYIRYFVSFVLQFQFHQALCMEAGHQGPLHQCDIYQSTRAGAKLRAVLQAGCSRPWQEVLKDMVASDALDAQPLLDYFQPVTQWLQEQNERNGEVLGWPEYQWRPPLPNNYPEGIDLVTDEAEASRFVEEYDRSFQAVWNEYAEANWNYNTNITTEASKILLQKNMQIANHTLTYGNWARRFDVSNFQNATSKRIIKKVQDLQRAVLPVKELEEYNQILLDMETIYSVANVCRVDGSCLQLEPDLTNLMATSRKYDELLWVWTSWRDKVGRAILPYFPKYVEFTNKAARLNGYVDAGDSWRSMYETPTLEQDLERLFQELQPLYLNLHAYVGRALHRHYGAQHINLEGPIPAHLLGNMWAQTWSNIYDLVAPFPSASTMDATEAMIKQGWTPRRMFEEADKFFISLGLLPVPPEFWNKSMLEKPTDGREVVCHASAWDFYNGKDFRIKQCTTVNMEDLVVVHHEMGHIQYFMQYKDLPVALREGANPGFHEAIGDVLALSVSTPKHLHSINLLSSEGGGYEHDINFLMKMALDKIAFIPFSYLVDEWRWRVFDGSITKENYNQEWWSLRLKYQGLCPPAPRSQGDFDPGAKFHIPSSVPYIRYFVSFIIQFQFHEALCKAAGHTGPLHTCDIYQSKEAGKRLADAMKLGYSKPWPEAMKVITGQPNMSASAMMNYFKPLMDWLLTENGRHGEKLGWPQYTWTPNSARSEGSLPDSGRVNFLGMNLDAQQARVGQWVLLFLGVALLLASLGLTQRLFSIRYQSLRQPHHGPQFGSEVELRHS
Method: The activity of the compounds of this invention was established by incubation of hippuryl-L-histidyl-L-leucine at 37° C. with angiotensin converting enzyme by the following procedure:
A crude angiotensin converting enzyme supernatant is obtained by blending 1 gm. of rabbit lung acetone powder (Pel-Freez Biologicals) with 35 ml of 50 mM (buffered) potassium phosphate, pH 8.3 and centrifuging for 45 min. at 40,000 xg.
The specific angiotensin converting enzyme substrate Hippuryl-L-histidyl-L-leucine (HHL--Sigma Chem. Co.) is prepared at 5 mM in 200 mM potassium phosphate buffer containing 757 mM NaCl at pH 8.3.
Incubation for the assay of HHL hydrolysis by angiotensin converting enzyme is carried out in a 37° C. gyrorotary incubator in disposable 13×100 mm tubes. Each 0.25 ml assay mixture contains the following components at the final concentrations: potassium phosphate buffer, 100 mM; NaCl, 300 mM; HHL, 5 mM; and enzyme 0.15 ml (10 mU approx.) added last to initiate the reaction. Zero time controls have 0.25 ml of 2 N HCl added before the enzyme. The timed reactions are terminated with acid at 30 min. similarly and the hippuric acid freed from substrate is extracted into 1.5 ml of ethylacetate by vortex mixing for 15 sec. After 5 min. centrifugation in a clinical centrifuge, a 1.0 ml aliquot of the ethyl acetate layer is transferred to a clean tube. These aliquots are evaporated to dryness by heating (120° C.) in a Temp-Block module heater.
The hippuric acid is resuspended in 1.0 ml of water, the absorbance at 228 nm is determined, and the amount present is calculated from a standard curve. The amount of hippuric acid×1.1 (extraction coefficient)×1.5 (ratio of volumes)×1 μM hippuric acid/[…]×1/30 min.=nM hippuric acid released/min. Enzyme activity in the presence of an inhibitor is compared with control activity, and reported as a percentage inhibition. (Cushman, D. W. and Cheung, H. S., Biochem. Pharmacol. 20 1637 (1971).

[2] = test system: male spontaneously hypertensive rats; assay: Blood pressure lowering in spontaneously hypertensive rats (systolic pressure, caudal plethysmograph); format: in vivo, rat
Method: In addition, the blood pressure lowering ability of the compounds of this invention was established by measuring the systolic pressure of male spontaneously hypertensive rats with a Decker Caudal Plethysmograph. The compounds tested were administered orally and blood pressure was read prior to and at 1.5, 4 and 24 hours after drug administration.

[3] = test system: angiotensin converting enzyme; assay: In vivo inhibition of angiotensin converting enzyme: blood pressure responses to i.v. angiotensin I in conscious normotensive rat after oral dosing; conditions: 10 mg/kg, 10 minutes post dosing, mean two animals
Method: The in vitro experiments were confirmed following the procedure of Rubin et al, J. Pharmacol. Exp. Ther 204 721 (1978) whereby jugular vein and carotid artery cannulae are placed in an ether anesthetized, normotensive,male, Spraque-Dawley rat for injection of compounds and direct recording of systemic arterial pressure, respectively. The blood pressure responses in the conscious animal to i.v. injections of angiotensin I (300 ng/kg), angiotensin II (100 ng/kg) and bradykinin (10 μg/kg) are recorded and compared with identical doses administered at various time intervals after oral dosing of the angiotensin converting enzyme inhibitor of this invention.

O=C(O)[C@@H]1CC[C@H](c2ccccc2)N1C(=O)CCS (relative stereo) [Example four, cis-1-(3-Mercaptopropanoyl)-5-phenyl proline]
inhibition at 0.1 µg/mL ([1]; 100 ng/ml): 72% | reduction of systolic blood pressure in spontaneously hypertensive rats ([2]; 50 mg/kg oral dose, four hours after administration): 21 millimeters | inhibition in vivo [3]: 65%

CC(CSC(=O)c1ccccc1)C(=O)N1[C@@H](c2ccccc2)CC[C@H]1C(=O)O (single isomer, unassigned) [α-acid of Example 7, 5-Phenyl-1-(3-benzoylthio-2-methyl-1-oxopropyl)proline]
inhibition of angiotensin converting enzyme in vitro ([1]; 100 ng/ml): 3% | inhibition of angiotensin converting enzyme in vitro ([1]; 1000 ng/ml): 17%

COc1ccc([C@H]2CC[C@@H](C(=O)O)N2C(=O)CCS)cc1OC (relative stereo) [Example two, cis-1-(3-Mercaptopropanoyl)-5-(3,4-Dimethoxyphenyl)proline]
inhibition at 0.1 µg/mL ([1]; 100 ng/ml): 40% | reduction of systolic blood pressure in spontaneously hypertensive rats ([2]; 50 mg/kg orally administered): 23 mmHg | inhibition in vivo [3]: 72%

CC(CSC(=O)c1ccccc1)C(=O)N1[C@@H](c2ccccc2)CC[C@H]1C(=O)O (single isomer, unassigned) [β-acid of Example 7, 5-Phenyl-1-(3-benzoylthio-2-methyl-1-oxopropyl)proline]
inhibition at 0.001 µg/mL ([1]; 1 ng/ml): 20% | inhibition at 0.01 µg/mL ([1]; 10 ng/ml): 40% | inhibition at 0.05 µg/mL ([1]; 50 ng/ml): 75% | inhibition of angiotensin converting enzyme in vitro ([1]; 100 ng/ml): 84% | inhibition of angiotensin converting enzyme in vitro ([1]; 1000 ng/ml): 99% | reduction of blood pressure in the rat ([2]; 10 mg/kg, oral): 37 mmHg
